# Tests used:
# HCT116 (colon) = assay: In vitro cytotoxic activity assay (MTT), HCT116; format: cell-based; settings: Homo sapiens, HCT-116; HCT116 (colon) cells, exposed for 96 hours; read-out: IC50, concentration of compound eliciting a 50% inhibition of cell proliferation
# Description: (§1) Compounds 1-16 were screened for their in vitro cytotoxic activity utilizing a 3-(4,5-dimethyl-thiazol-2-yl)-2,5-diphenyltetrazolium bromide (MTT) assay against selected cancer human cell lines consisting of PC3 (prostate), HCT116 (colon), A375 (melanoma), H1299 (lung), MIAPaCa-2 (pancreas), HL60 (leukemia), MCF7 (breast), MDA-MB-231 (breast) (T. Mosmann, J. Immunol. Meth., 1983, 65, 55-63). The cells were cultured at 37° C. in RMPI1640 medium supplemented with 10% fetal bovine serum, 50 IU/mL penicillin, and 50 μg/mL streptomycin in a 5% CO2 incubator. All cells were sub-cultured 3 times/week by trypsinisation. Viable cells were seeded and allowed to adhere for 12 h before a test drug was added in 96-well plates at an initial density of 1.0×10^5 cells/mL. Tumour cell lines were separately exposed to various concentrations of the tested compounds followed by incubation at a temperature of 37° C. during 96 h inside a medium of fresh RMPI 1640. Cells were subsequently incubated at 37° C. using MTT at 0.5 mg/mL during 4 h. After removal of supernatant, formazan crystals were dissolved in isopropanol and the optical density was measured at 570 nm. CX-4945 was used as a positive control.
# HL60 (leukemia) = assay: In vitro cytotoxic activity assay (MTT), HL60; format: cell-based; settings: Homo sapiens, HL-60; HL60 (leukemia) cells, exposed for 96 hours; read-out: IC50, concentration of compound eliciting a 50% inhibition of cell proliferation
# Description: as §1
# A375 (melanoma) = assay: In vitro cytotoxic activity assay (MTT), A375; format: cell-based; settings: Homo sapiens, A-375; A375 (melanoma) cells, exposed for 96 hours; read-out: IC50, concentration of compound eliciting a 50% inhibition of cell proliferation
# Description: as §1
# H1299 (lung) = assay: In vitro cytotoxic activity assay (MTT), H1299; format: cell-based; settings: Homo sapiens, NCI-H1299; H1299 (lung) cells, exposed for 96 hours; read-out: IC50, concentration of compound eliciting a 50% inhibition of cell proliferation
# Description: as §1
# MCF7 (breast) = assay: In vitro cytotoxic activity assay (MTT), MCF7; format: cell-based; settings: Homo sapiens; MCF7 (breast) cells, exposed for 96 hours; read-out: IC50, concentration of compound eliciting a 50% inhibition of cell proliferation
# Description: as §1
# MIAPaCa-2 (pancreas) = assay: In vitro cytotoxic activity assay (MTT), MIAPaCa-2; format: cell-based; settings: Homo sapiens, MIA PaCa-2; MIAPaCa-2 (pancreas) cells, exposed for 96 hours; read-out: IC50, concentration of compound eliciting a 50% inhibition of cell proliferation
# Description: as §1
# PC3 (prostate) = assay: In vitro cytotoxic activity assay (MTT), PC3; format: cell-based; settings: Homo sapiens, Prostate cell; PC3 (prostate) cells, exposed for 96 hours; read-out: IC50, concentration of compound eliciting a 50% inhibition of cell proliferation
# Description: as §1
# MDA-MB-231 (breast) = assay: In vitro cytotoxic activity assay (MTT), MDA-MB-231; format: cell-based; settings: Homo sapiens; MDA-MB-231 (breast) cells, exposed for 96 hours; read-out: IC50, concentration of compound eliciting a 50% inhibition of cell proliferation
# Description: as §1
# recombinant human CK2 = target: T1, recombinant human CK2 (Homo sapiens, UniProt P68400); assay: CK2 Kinase Assay (radiometric, [γ-33P]ATP); format: biochemical; settings: final ATP concentration 15 μM, 10 min at 30° C.; read-out: protein kinase CK2 activity IC50
# T1 construct: purchased Millipore
# Description: CK2 Kinase Assay was conducted using the protocol as described in Pierre F. et al; J. Med. Chem. 2011, 54, 635-654. The tested compounds in aqueous solution were added at a volume of 10 μL to a reaction mixture comprising 10 μL of assay dilution buffer (ADB; 20 mM MOPS, pH 7.2, 25 mM β-glycerol phosphate, 5 mM EGTA, 1 mM sodium orthovanadate, and 1 mM dithiothreitol), 10 μL of substrate peptide (RRRDDDSDDD, dissolved in ADB at a concentration of 1 mM), 10 μL of recombinant human CK2 (RROP-holoenzyme, 25 ng dissolved in ADB; Millipore). Reactions were initiated by the addition of 10 μL of ATP solution (90% 75 mMMgCl2, 75 μM ATP (final ATP concentration:15 μM) dissolved in ADB; 10% [γ-33P] ATP (stock 1mCi/100 L; 3000 Ci/mmol (Perkin-Elmer) and maintained for 10 min at 30° C. The reactions were quenched with 100 μL of 0.75% phosphoric acid and then transferred to and filtered through a phosphor cellulose filter plate (Millipore). After washing each well five times with 0.75% phosphoric acid, the plate was dried under vacuum for 5 min and, following the addition of 15 μL of scintillation fluid to each well, the residual radioactivity was measured using a Wallac luminescence counter. The IC50 values were derived from eight concentrations of test inhibitors.
# T1 sequence (P68400 whole entry): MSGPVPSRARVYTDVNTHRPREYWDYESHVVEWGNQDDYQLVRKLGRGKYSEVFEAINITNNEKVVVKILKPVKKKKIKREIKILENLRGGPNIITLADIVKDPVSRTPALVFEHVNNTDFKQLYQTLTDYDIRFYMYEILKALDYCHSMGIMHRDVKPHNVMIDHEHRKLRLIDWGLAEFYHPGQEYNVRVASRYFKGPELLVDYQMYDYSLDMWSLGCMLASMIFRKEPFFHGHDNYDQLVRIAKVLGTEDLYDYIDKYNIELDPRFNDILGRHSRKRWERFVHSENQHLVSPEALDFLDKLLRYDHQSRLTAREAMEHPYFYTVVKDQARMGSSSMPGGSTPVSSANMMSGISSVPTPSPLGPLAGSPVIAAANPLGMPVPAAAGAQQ
# T1 sequence (P67870 whole entry partner): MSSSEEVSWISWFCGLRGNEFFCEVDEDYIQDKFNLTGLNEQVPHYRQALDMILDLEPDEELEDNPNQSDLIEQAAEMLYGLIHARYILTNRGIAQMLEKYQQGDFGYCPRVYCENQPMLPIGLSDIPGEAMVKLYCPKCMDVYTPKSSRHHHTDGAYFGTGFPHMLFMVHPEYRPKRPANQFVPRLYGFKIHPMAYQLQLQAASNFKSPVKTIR
smiles,measurement,setting,value
"O=C(O)c1ccc2c(c1)nc(Nc1cccc(Cl)c1)c1[nH]c3ccncc3c12 [Compound 1, 6-((3-chlorophenyl)amino)-7H-pyrido[3′,4′:4,5]pyrrolo[2,3-c]quinoline-3-carboxylic acid]",IC50,HCT116 (colon),1500 nM
same,IC50,HL60 (leukemia),2800 nM
same,IC50,A375 (melanoma),3300 nM
same,IC50,H1299 (lung),1900 nM
same,IC50,MCF7 (breast),4100 nM
same,IC50,MIAPaCa-2 (pancreas),1100 nM
same,IC50,PC3 (prostate),1100 nM
same,IC50,MDA-MB-231 (breast),2500 nM
same,IC50,recombinant human CK2,175 nM

# Reference: patent US11884668B1, “Substituted pyrido[3′,4′:4,5]pyrrolo[2,3-c]quinolines as CK2 inhibitors” (KING FAISAL UNIVERSITY, priority 2023, dated 2024)
